Structures can show the parent of a compound that is named as a salt.

The test deals with mice. The test is described as follows: Neuropharmacological Assay (SmartCube): automated behavioral signature of compound-treated mice compared with a database of reference drug classes. The format is in vivo. The settings on record: for minimal effective dose: Mus musculus, ip, read-out: MED; for minimal effective dose / MED: minimal effective dose: dose having 45% or more total activity in SmartCube; for minimal effective dose / MED / MED (minimal effective dose): i.p., that dose is shown; for MED (minimal effective dose): dose having 45% or more total activity in SmartCube. The source says:
Neurosci. 2011 Sep. 9; 5: 103 (doi: 10.3389/fnins.2011.00103) (“Roberds”). As reported in Roberds, because psychiatric diseases generally result from disorders of cell-cell communication or circuitry, intact systems are useful in detecting improvement in disease-relevant endpoints. These endpoints are typically behavioral in nature, often requiring human observation and interpretation. To facilitate testing of multiple compounds for behavioral effects relevant to psychiatric disease, PsychoGenics, Inc. (Tarrytown, NY, “PGI”) developed SmartCube™ an automated system in which behaviors of compound-treated mice are captured by digital video and analyzed with computer algorithms. (D. Brunner et al. Drug Discov. Today 2002, 7:S107-S112). PGI Analytical Systems uses data from SmartCube™ to compare the behavioral signature of a test compound to a database of behavioral signatures obtained using a large set of diverse reference compounds. (The composition of the database as well as validation of the method is further described in Roberds). In this way, the neuropharmacological effects of a test compound can be predicted by similarity to major classes of compounds, such as antipsychotics, anxiolytics and antidepressants.
The SmartCube™ system produces an activity signature indicating the probability that the activity of the test compound at the administered dose matches a given class of neuropharmacological agents. (See, e.g., Roberds, FIGS. 2 and 3). The test compound is simultaneously compared against multiple classes of agents; thus, a separate probability is generated for each behavioral effect measured (e.g., anxiolytic activity, analgesic activity, etc.). In table 2 below, these probabilities are reported for each behavioral effect measured as described in Table 1 below.
Provided compounds were dissolved in a mixture of Pharmasolve™ (N-methyl-2-pyrrolidone), polyethylene glycol and propylene glycol, and were injected i.p. 15 min. before the behavioral test. For each compound, injections were administered at 3 different doses. For each behavioral effect measured, results for the 3.0 mg/kg dose are presented. The potency of many of the compounds in the table was also determined in the SmartCube™ system. Test compounds were routinely examined at dose levels of 0.3, 1, 3 and 10 mg per kg (mpk), although the dose range was increased or decreased, if necessary, to obtain a full dose response curve. A compound's minimal effective dose (MED) is a measure of the compound's potency. The MED was defined as the dose (in mpk) having 45% or more total activity in SmartCube. If only one dose was tested, that dose is shown in the MED column of Table 2 even though the dose is not known to be the MED.

Setting [1] is: SmartCube class probability, 3.0 mg/kg i.p., 15 min before test.
The mark [2] stands for this setting: SmartCube class probability, 3.0 mg/kg i.p., 15 min before test, hydrochloride, 3 mg/kg.
[3] abbreviates: if only one dose tested, hydrochloride.
Setting [4] is: SmartCube probability class, 3.0 mg/kg dose, i.p. 15 min before the behavioral test.
Setting [5] is: SmartCube probability class, 3.0 mg/kg dose, i.p. 15 min before the behavioral test, hydrochloride, 3 mg/kg.
Setting [6] is: probability that activity matches this class of agents, 3.0 mg/kg i.p., 15 min before test.
Where [7] appears, read: probability that activity matches this class of agents, 3.0 mg/kg i.p., 15 min before test, hydrochloride, 3 mg/kg.
Where [8] appears, read: if only one dose was tested, hydrochloride.

`CNC1COc2c(C(F)(F)F)csc2C1` (stereo not shown) [Compound 248, N-methyl-3-(trifluoromethyl)-6,7-dihydro-5H-thieno[3,2-b]pyran-6-amine hydrochloride]: the minimal effective dose (if only one dose tested) was found to be 1 mg/kg. Moreover, under setting [1], the AD entry was “+++ (≥49%)”, the AN result was “ND (^ <4%)”, the AP result is on record as “ND (^ <4%)” and the AX entry is listed as “ND (^ <4%)”. Besides, under setting [1], the CE entry is reported as “ND (^ <4%)”, the HL entry was “ND (^ <4%)”, the MS result was “ND (^ <4%)” and the PS entry is listed as “ND (^ <4%)”. Under setting [1], the SH entry is given as “ND (^ <4%)” and the UK result was “ND (^ <4%)”.
With `CNC1CCc2csc(C3CC3)c2C1` (single isomer, unassigned) [Compound 155, 3-cyclopropyl-N-methyl-4,5,6,7-tetrahydro-2-benzothiophen-5-amine hydrochloride], under setting [1], the AG result is on record as “ND (^ <4%)”, the AN result is “ND (^ <4%)”, the AP result was “ND (^ <4%)” and the AX entry is reported as “ND (^ <4%)”. Moreover, under setting [1], the HL result was “ND (^ <4%)”, the PS entry was “ND (^ <4%)” and the UK entry was “ND (^ <4%)”. Moreover, under setting [2], the AD entry is listed as “+ (≥4%)”, the CE entry is given as “+ (≥4%)”, the MS result was “+ (≥4%)” and the SH entry is reported as “++ (≥24%)”. The compound further displayed an MED under setting [3] of 0.3 mpk.
Regarding `CNC1COc2c(C3CC3)csc2C1` (single isomer, unassigned) [Compound 325, 3-cyclopropyl-N-methyl-6,7-dihydro-5H-thieno[3,2-b]pyran-6-amine hydrochloride], under setting [4], the AG result was “ND (^ <4%)”, the AN entry was “ND (^ <4%)”, the AP result is reported as “ND (^ <4%)” and the AX entry is given as “ND (^ <4%)”. For the same compound, under setting [4], the CE result is on record as “ND (^ <4%)”, the HL result is recorded as “ND (^ <4%)”, the MS entry is listed as “ND (^ <4%)” and the PS result was “ND (^ <4%)”. Further, under setting [4], the SH result is given as “ND (^ <4%)”. Under setting [5], the AD entry is on record as “ND (^ <4%)” and the UK entry is reported as “++ (≥24%)”. Moreover, the MED (if only one dose was tested) is recorded as 3 mpk.
For the compound `Cc1cc2c(s1)CCC(N)C2` (stereo not shown) [Compound 185, 2-methyl-4,5,6,7-tetrahydrobenzothiophen-5-amine hydrochloride], under setting [1], the AD entry was “ND (^ <4%)”, the AG result is reported as “ND (^ <4%)”, the AN entry is given as “ND (^ <4%)” and the AP result is reported as “ND (^ <4%)”. Moreover, under setting [1], the AX entry is “ND (^ <4%)”, the CE entry was “ND (^ <4%)”, the HL entry is “ND (^ <4%)” and the MS entry is “ND (^ <4%)”. Under setting [1], the PS result was “ND (^ <4%)”, the SH entry is given as “ND (^ <4%)” and the UK entry is reported as “++ (≥24%)”.
With `CNC1CCCc2cscc2C1` (single isomer, unassigned) [Compound 169, N-methyl-5,6,7,8-tetrahydro-4H-cyclohepta[c]thiophen-5-amine hydrochloride], under setting [1], the AD result was “ND (^ <4%)”, the AG result is on record as “ND (^ <4%)”, the AN result was “ND (^ <4%)” and the CE result was “ND (^ <4%)”. Further, under setting [1], the HL result is given as “ND (^ <4%)”, the MS entry was “ND (^ <4%)”, the PS entry is reported as “ND (^ <4%)” and the SH result is given as “ND (^ <4%)”. In addition, under setting [2], the AP result was “ND (^ <4%)”, the AX entry is listed as “ND (^ <4%)” and the UK result is on record as “++ (≥24%)”. Besides, the MED under setting [3] is 3 mpk.
For `CNC1CCc2cscc2C1.Cl` (single isomer, unassigned) [Compound 14, N-methyl-4,5,6,7-tetrahydro-2-benzothiophen-5-amine hydrochloride], under “if only one dose was tested”, the “MED (minimal effective dose)” value was determined as 0.3 mpk. Besides, under setting [6], the AG entry is recorded as “ND (^ <4%)”, the AN result was “ND (^ <4%)”, the AX entry is on record as “+ (≥4%)” and the HL entry was “ND (^ <4%)”. Under setting [6], the MS entry is reported as “ND (^ <4%)”, the PS entry was “ND (^ <4%)”, the SH result is “ND (^ <4%)” and the UK result was “ND (^ <4%)”. Also, under setting [7], the AD entry was “++ (≥24%)”, the AP result is on record as “+ (≥4%)” and the CE entry was “ND (^ <4%)”.
For `CNC1CCc2csc(C(F)(F)F)c2C1` (single isomer, unassigned) [Compound 61, N-methyl-3-(trifluoromethyl)-4,5,6,7-tetrahydro-2-benzothiophen-5-amine hydrochloride], the “MED (minimal effective dose)” value under setting [8] is reported as 3.0 mpk. Besides, under setting [6], the AG result is “ND (^ <4%)”, the AN entry is reported as “ND (^ <4%)”, the AX result was “ND (^ <4%)” and the CE entry was “ND (^ <4%)”. For the same compound, under setting [6], the HL result was “ND (^ <4%)”, the MS result is “ND (^ <4%)”, the PS result is listed as “ND (^ <4%)” and the SH entry is on record as “ND (^ <4%)”. In addition, the UK entry under setting [6] is “ND (^ <4%)”. In addition, under setting [7], the AD result is “+ (≥4%)” and the AP entry is listed as “+++ (≥49%)”.
As to `CNC1CCc2sc(-c3ccccc3)cc2C1.Cl` (single isomer, unassigned) [Compound 256, N-methyl-2-phenyl-4,5,6,7-tetrahydrobenzothiophen-5-amine hydrochloride], the minimal effective dose (if only one dose tested) was over 3 mg/kg. In addition, under setting [1], the AD entry is listed as “ND (^ <4%)”, the AG entry is recorded as “ND (^ <4%)”, the AN result was “ND (^ <4%)” and the AP entry is recorded as “ND (^ <4%)”. For the same compound, under setting [1], the AX entry was “ND (^ <4%)”, the CE result is recorded as “ND (^ <4%)”, the HL entry is listed as “ND (^ <4%)” and the MS result is recorded as “ND (^ <4%)”. Moreover, under setting [1], the PS entry is reported as “ND (^ <4%)” and the SH entry is recorded as “ND (^ <4%)”. For the same compound, under setting [2], the UK entry is given as “+ (≥4%)”.
`CNC1Cc2ccsc2C1.Cl` (single isomer, unassigned) [Compound 20, N-methyl-5,6-dihydro-4H-cyclopenta[b]thiophen-5-amine hydrochloride]: under setting [8], the “MED (minimal effective dose)” value amounted to 1.0 mpk. Moreover, under setting [6], the AG entry is recorded as “ND (^ <4%)”, the AN result is reported as “ND (^ <4%)”, the AP entry is listed as “+ (≥4%)” and the HL entry is reported as “ND (^ <4%)”. Besides, under setting [6], the MS result is on record as “ND (^ <4%)”, the PS result was “ND (^ <4%)” and the SH result is recorded as “ND (^ <4%)”. Further, under setting [7], the AD result was “++++ (≥74%)”, the AX result was “+ (≥4%)”, the CE entry was “+ (≥4%)” and the UK result is “ND (^ <4%)”.
On to `c1scc2c1CCC(NCC1CC1)C2` (single isomer, unassigned) [Compound 158, N-(cyclopropylmethyl)-4,5,6,7-tetrahydro-2-benzothiophen-5-amine hydrochloride], for which, under setting [1], the AD result was “ND (^ <4%)”, the AG entry is on record as “ND (^ <4%)”, the AN entry is listed as “ND (^ <4%)” and the AP entry is reported as “ND (^ <4%)”. For the same compound, under setting [1], the CE result is “ND (^ <4%)”, the HL entry was “ND (^ <4%)”, the MS result is on record as “ND (^ <4%)” and the PS result is recorded as “ND (^ <4%)”. For the same compound, under setting [1], the SH result is on record as “ND (^ <4%)”. Further, under setting [2], the AX entry was “++++ (≥74%)” and the UK entry was “ND (^ <4%)”. For the same compound, the MED under setting [3] worked out at 1 mpk.

The values are drawn from US20260274814A1, “THIENYL COMPOUNDS FOR THE TREATMENT OF A CENTRAL NERVOUS SYSTEM DISEASE OR DISORDER” (Coreterra Therapeutics, Inc., priority 2023, published 2026).
